The supplement of paper PMC10307832

Tests used:
Test in all cases: relative viability (nuclei count vs DMSO), 5 days (fraction); higher = more cells survive
[1] = compound: CCN(CCO)CCCC(C)Nc1ccnc2cc(Cl)ccc12 [Hydroxychloroquine] + O=C(CCCCCCC(=O)Nc1ccccc1)NO [Vorinostat] (partner 1 µM)
In short: (§1)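 Lung cancer cell lines, seeded in 1536-well plates, were treated the following day by pin tool with a single drug or with five library-drug doses (not always all listed) in √10 steps on top of a fixed anchor-drug dose. Cells were fixed and nuclei stained in one step after 5 days, and nuclei were counted. Relative viability is the nuclei count for treated wells divided by that for vehicle wells, reported as medians of duplicate plates.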

[2] = compound: CCN(CCO)CCCC(C)Nc1ccnc2cc(Cl)ccc12 [Hydroxychloroquine] + C[C@]1(O)C[C@@H](c2nc(-c3ccc4ccc(-c5ccccc5)nc4c3)c3c(N)nccn32)C1 [Linsitinib] (partner 1 µM)
In short: as §1

[3] = compound: CCN(CCO)CCCC(C)Nc1ccnc2cc(Cl)ccc12 [Hydroxychloroquine] + CC1(C)CCC(c2ccc(Cl)cc2)=C(CN2CCN(c3ccc(C(=O)NS(=O)(=O)c4ccc(N[C@H](CCN5CCOCC5)CSc5ccccc5)c(S(=O)(=O)C(F)(F)F)c4)cc3)CC2)C1 [Navitoclax] (partner 0.5 µM)
In short: as §1

[4] = compound: CCN(CCO)CCCC(C)Nc1ccnc2cc(Cl)ccc12 [Hydroxychloroquine] + Cc1nc(NC(=O)N2CCC[C@H]2C(N)=O)sc1-c1ccnc(C(C)(C)C(F)(F)F)c1 [Alpelisib] (partner 2 µM)
In short: as §1

Cell Line	relative viability ([1]; first compound 0.5 µM)	relative viability ([1]; first compound 1.581 µM)	relative viability ([1]; first compound 5 µM)	relative viability ([1]; first compound 15.81 µM)	relative viability ([1]; first compound 50 µM)	relative viability ([2]; first compound 0.5 µM)	relative viability ([2]; first compound 1.581 µM)	relative viability ([2]; first compound 5 µM)	relative viability ([2]; first compound 15.81 µM)	relative viability ([2]; first compound 50 µM)	relative viability ([3]; first compound 0.5 µM)	relative viability ([3]; first compound 1.581 µM)	relative viability ([3]; first compound 5 µM)	relative viability ([3]; first compound 15.81 µM)	relative viability ([3]; first compound 50 µM)	relative viability ([4]; first compound 0.5 µM)	relative viability ([4]; first compound 1.581 µM)	relative viability ([4]; first compound 5 µM)	relative viability ([4]; first compound 15.81 µM)	relative viability ([4]; first compound 50 µM)
LCLC-97TM1	0.778	0.742	0.772	0.766	0.797	0.2	0.189	0.215	0.172	0.173	0.432	0.619	0.656	0.517	0.397	0.286	0.223	0.262	0.244	0.286
HARA	0.516	0.482	0.55	0.603	0.594	1.01	0.993	0.996	0.997	0.913	1.14	1.15	1.14	1.2	1.12	0.763	0.856	0.863	0.805	0.841
HCC-78	0.632	0.381	0.438	0.446	0.509	0.49	0.728	0.304	0.516	0.455	0.865	0.82	0.993	0.768	0.777	0.394	0.299	0.316	0.331	0.31
NCI-H1666	0.991	0.943	1.01	0.92	0.936	0.764	0.773	0.771	0.813	0.724	0.921	0.951	0.986	0.827	0.918	0.99	0.996	0.873	0.882	0.668
NCI-H2347	0.663	0.456	0.604	0.639	0.58	1.05	0.84	0.932	0.994	0.895	0.784	0.81	0.689	0.851	0.702	1.06	0.904	1.02	1.11	0.956
PC-14	0.672	0.583	0.753	0.687	0.781	0.889	1.07	0.995	1.03	0.97	1.03	1.07	0.979	1.01	0.962	0.782	0.858	0.951	0.892	1.01
NCI-H2023	0.788	0.574	0.687	0.706	0.85	0.618	0.65	0.697	0.643	0.728	1.09	0.985	1.03	0.974	1.03	0.547	0.47	0.636	0.605	0.601
201T	0.954	0.943	1.02	0.929	1.07	1.07	0.987	1.07	1	1.13	1.22	1.19	1.19	1.19	1.22	1.03	0.916	1.02	1.03	1.01
NCI-H1915	0.521	0.456	0.48	0.549	0.5	1.11	1.13	1.11	1.09	1.11	0.783	0.773	0.84	0.831	0.76	1.03	1.08	1.06	1.13	1.07
NCI-H2009	0.764	0.718	0.75	0.747	0.729	1.2	1.2	1.28	1.23	1.14	1.16	1.22	1.21	1.13	1.25	1.19	1.24	1.26	1.17	1.09
BEN	0.632	0.563	0.638	0.635	0.608	0.87	0.929	0.872	0.973	1.15	0.051	0.0669	0.0688	0.0612	0.0766	1.04	1.04	0.981	1.06	1.32
PC-3 [JPC-3]	0.918	0.847	0.652	0.737	0.782	0.983	0.948	0.923	1.01	0.979	0.851	0.776	0.83	0.67	0.85	1.01	1.04	1.06	1	1.02
SK-MES-1	1.33	0.882	1.2	1.23	1.27	1.1	1.09	1.12	1.16	1.03	1.45	1.21	1.25	1.27	1.17	0.697	0.765	1.01	0.952	0.929
NCI-H838	0.721	0.667	0.803	0.716	0.721	0.929	0.91	1.01	0.93	1.04	1.16	1.11	1.13	1.14	1.24	1.04	0.946	0.983	1.04	1.08
NCI-H1355	0.657	0.582	0.631	0.63	0.657	0.872	0.879	0.896	0.809	0.892	0.891	0.879	0.876	0.991	1.01	0.81	0.744	0.837	0.833	0.86
NCI-H1975	0.682	0.704	0.8	0.742	0.717	0.938	0.949	0.92	1.04	1.06	1.08	1.05	1.15	1.03	1.22	0.642	0.668	0.631	0.697	0.75
LK-2	0.318	0.274	0.248	0.299	0.294	0.473	0.438	0.843	0.607	0.696	0.777	0.763	0.809	0.914	0.632	1.02		1.26	1.27	1.24
NCI-H727	1.07	1.22	1.23	0.969	1.33	0.279	0.276	0.306	0.305	0.357	0.456	0.399	0.482	0.357	0.406	0.454	0.58	0.589	0.512	0.526
HCC-366	0.339	0.232	0.301	0.338	0.434	0.573	0.769	0.613	0.627	0.796	1.09	1.04	0.963	1.07	1.16	0.569	0.375	0.368	0.434	0.482
HOP-62	0.584	0.628	0.573	0.574	0.69	0.95	0.873	1.15	0.868	0.987	0.962	1.13	1.1	1.03	1.13	0.997	1.18	1.15	1	1.04

Cell Line	relative viability ([1]; first compound 0.5 µM)	relative viability ([1]; first compound 1.581 µM)	relative viability ([1]; first compound 5 µM)	relative viability ([1]; first compound 15.81 µM)	relative viability ([1]; first compound 50 µM)	relative viability ([2]; first compound 0.5 µM)	relative viability ([2]; first compound 1.581 µM)	relative viability ([2]; first compound 5 µM)	relative viability ([2]; first compound 15.81 µM)	relative viability ([2]; first compound 50 µM)	relative viability ([3]; first compound 0.5 µM)	relative viability ([3]; first compound 1.581 µM)	relative viability ([3]; first compound 5 µM)	relative viability ([3]; first compound 15.81 µM)	relative viability ([3]; first compound 50 µM)	relative viability ([4]; first compound 0.5 µM)	relative viability ([4]; first compound 1.581 µM)	relative viability ([4]; first compound 5 µM)	relative viability ([4]; first compound 15.81 µM)	relative viability ([4]; first compound 50 µM)
NCI-H1944	0.553	0.487	0.46	0.478	0.56	1.12	1.09	1.16	1.11	1.19	0.958	0.955	1.06	0.951	1.01	0.797	0.778	0.858	0.794	0.848
UMC-11	0.4	0.314	0.387	0.393	0.457	0.928	1.02	0.986	1.1	1.22	0.307	0.288	0.299	0.322	0.327	0.841	0.956	0.962	1.06	1.2
NCI-H650	0.478	0.432	0.397	0.42	0.478	0.907	0.802		0.828	0.818						1.08	1.17		1.1	1.17
EBC-1						0.953	0.505	0.992	0.769	0.915	0.371	0.387	0.418	0.412	0.374	1.01	0.572	0.784	0.688	0.599
NCI-H1648	0.458	0.44	0.422	0.68	0.503															
SW 900	0.532	0.535	0.504	0.382	0.505															
ABC-1	1.33	1.19	1.11	0.934	1.19	1	0.698	0.959	0.759	0.879						1.27	1.03	0.924	0.949	0.942
NCI-H1792						0.534	0.588	0.583	0.536	0.56	0.509	0.607	0.686	0.367	0.451	0.677	0.698	0.65	0.392	0.664
NCI-H1563						1.03	1.04	1.18	1.06	1.17						0.908	0.877	1	0.888	0.871
NCI-H1299						1.03	0.633	1.03	0.973	1.06	1.05	1.01	1.02	1.05	1.04	0.999	1.04	1.03	1.12	0.996
ChaGo-K-1	0.806	0.785	0.778	0.759	0.711						1.22	0.685	0.687	1.06	1					
NCI-H2170	0.784	0.839	0.829	0.878	0.95						0.54	0.695	0.631	0.644	0.549	0.832	0.797	0.844	0.801	0.835
NCI-H522	0.832		0.882	0.904	1.01															
A549						0.617	0.543	0.576	0.646	0.629	1.24	1.09	1.26	1.29	1.19	0.749	0.577	0.761	0.708	0.623
NCI-H358	0.695	0.731	0.72	0.673	0.655	0.795	0.704	0.712	0.69	0.743						0.832	0.698	0.775	0.91	0.8
NCI-H661	0.827	0.828	0.782	0.802	0.782	0.537	0.361	0.564	0.542	0.598						0.665	0.567	0.795	0.547	0.481
LCLC-103H	0.859	0.718	0.752	0.829	0.793	1.16	1.08	1.07	1.01	1.16						1.02	0.907	0.965	0.888	0.953
NCI-H1650	0.48	0.593	0.634	0.663	0.608						1.06	1.06	1.24	1.04	1.29					
Calu-6						0.864	0.881	1.11	0.938	0.942	0.852	0.883	0.836	0.731	0.823	1.01	0.881	0.896	0.939	0.924
